Laboratory results reported in US5773421A, “Antifungal fusacandins” (Abbott Laboratories, priority 1995, dated 1998).
In brackets after ≈: the same amount, converted by molar mass. Where two headings read alike, the source gives them in different places.

Key:
[1] = test system: Aspergillus niger ATCC 164; assay: MIC by agar dilution method; type: cell-based
Experimental: (§1) Minimal inhibitory concentrations (MICs) were determined by an agar dilution method. The test compounds were serially diluted in MeOH and 0.2 mL portions were mixed with 20 mL of molten, cooled Sabouraud dextrose agar (Difco). Yeast cell inoculum was prepared by growing cultures on Sabouraud dextrose agar for 18 hours at 32° C. and suspending the cells in phosphate buffered saline. Filamentous fungi were grown under the same conditions for 4 days to obtain spores. The inoculum level for all cultures was adjusted to 10^4 cells using a Petroff-Hauser cell counter. The glutarimide antifungal compounds cycloheximide or amphotericin B were used as a control. Inoculated test plates were incubated at 32° C. and examined after 20 hours.

[2] = test system: Candida albicans ATCC 623; assay: MIC by agar dilution method; type: cell-based
Experimental: as §1

[3] = test system: Candida albicans ATCC 997; assay: MIC by agar dilution method; type: cell-based; conditions: Candida albicans, ATCC997, 20 h
Experimental: as §1

Candida albicans CCH 442 = assay: MIC by agar dilution method; type: cell-based
Experimental: as §1

[4] = test system: Candida tropicalis NRRL-Y-1; assay: MIC by agar dilution method; type: cell-based
Experimental: as §1

[5] = test system: Saccharomyces cereviseae GS1-36; assay: MIC by agar dilution method; type: cell-based
Experimental: as §1

[6] = test system: Torulopsis glabrata ATCC 155; assay: MIC by agar dilution method; type: cell-based; conditions: Nakaseomyces glabratus
Experimental: as §1

[7] = test system: Nocardia asteroides ATTC 9970; assay: MIC by agar dilution method; type: cell-based; conditions: Nocardia asteroides, ATTC9970, 20 h
[8] = test system: Streptococcus pyrogenes EES61; assay: MIC by agar dilution method; type: cell-based; conditions: Streptococcus, EES61, 20 h
[9] = test system: Streptococcus bovis A-5169; assay: MIC by agar dilution method; type: cell-based; conditions: Streptococcus equinus, A5169, 20 h
[10] = test system: Staphylococcus aureus ATTC 6538p; assay: MIC by agar dilution method; type: cell-based; conditions: Staphylococcus aureus, ATTC6538P, 20 h
Candida albicans 579a = assay: MIC by agar dilution method; type: cell-based
Experimental: as §1

[11] = test system: Candida albicans ATCC 10231; assay: MIC by agar dilution method; type: cell-based; conditions: ATCC10231; Table 6c; I Candida albicans ATCC 10231; agar dilution; read-out: MIC I
Experimental: as §1

[12] = test system: Candida albicans ATCC 102; assay: MIC by agar dilution method; type: cell-based; conditions: ATCC102, 20 h
Experimental: as §1

[13] = test system: Candida albicans ATCC 38247; assay: MIC by agar dilution method; type: cell-based; conditions: ATCC38247; Table 6c; IV Candida albicans ATCC 38247; agar dilution; read-out: MIC IV
Experimental: as §1

[14] = test system: Candida albicans ATCC 382; assay: MIC by agar dilution method; type: cell-based; conditions: ATCC382, 20 h
Experimental: as §1

[15] = test system: Candida albicans ATCC 62376; assay: MIC by agar dilution method; type: cell-based; conditions: ATCC62376; Table 6c; V Candida albicans ATCC 62376; agar dilution; read-out: MIC V
Experimental: as §1

Candida kefyr ATTC 288 = assay: MIC by agar dilution method; type: cell-based; conditions: Kluyveromyces marxianus, ATCC288, 20 h
Experimental: as §1

[16] = test system: Cryptococcus albidus ATCC 341; assay: MIC by agar dilution method; type: cell-based; conditions: Naganishia albida, ATCC341, Table 6b, 32° C., 20 hours
Experimental: as §1

[17] = MIC by broth dilution assay; type: cell-based; conditions: 144 h, Table 6d, no sorbitol, 2 ×10^5 organisms/mL
Experimental: Minimal inhibitory concentrations (MICs) were determined by a broth dilution assay described by Frost, D., Brandt, K., Cugier, D., and Goldman, R. in J. Antibiotics 48: 306-310 (1995) which is incorporated herein by reference. The final concentration of cells was 2 ×10^5 organisms/mL.

(1,3)-β-Glucan Synthase = target: T1, (1,3)-β-Glucan Synthase (Candida albicans, UniProt O13428); assay: In vitro inhibition of (1,3)-β-glucan synthase activity, microsomal enzyme preparation; type: biochemical; conditions: C. albicans CCH 442 microsomal enzyme
T1 construct: microsomal enzyme preparation C. albicans CCH 442; endogenous in cells; host or cells: Candida albicans CCH 442, microsomes
T1 sequence (O13428 1-1897): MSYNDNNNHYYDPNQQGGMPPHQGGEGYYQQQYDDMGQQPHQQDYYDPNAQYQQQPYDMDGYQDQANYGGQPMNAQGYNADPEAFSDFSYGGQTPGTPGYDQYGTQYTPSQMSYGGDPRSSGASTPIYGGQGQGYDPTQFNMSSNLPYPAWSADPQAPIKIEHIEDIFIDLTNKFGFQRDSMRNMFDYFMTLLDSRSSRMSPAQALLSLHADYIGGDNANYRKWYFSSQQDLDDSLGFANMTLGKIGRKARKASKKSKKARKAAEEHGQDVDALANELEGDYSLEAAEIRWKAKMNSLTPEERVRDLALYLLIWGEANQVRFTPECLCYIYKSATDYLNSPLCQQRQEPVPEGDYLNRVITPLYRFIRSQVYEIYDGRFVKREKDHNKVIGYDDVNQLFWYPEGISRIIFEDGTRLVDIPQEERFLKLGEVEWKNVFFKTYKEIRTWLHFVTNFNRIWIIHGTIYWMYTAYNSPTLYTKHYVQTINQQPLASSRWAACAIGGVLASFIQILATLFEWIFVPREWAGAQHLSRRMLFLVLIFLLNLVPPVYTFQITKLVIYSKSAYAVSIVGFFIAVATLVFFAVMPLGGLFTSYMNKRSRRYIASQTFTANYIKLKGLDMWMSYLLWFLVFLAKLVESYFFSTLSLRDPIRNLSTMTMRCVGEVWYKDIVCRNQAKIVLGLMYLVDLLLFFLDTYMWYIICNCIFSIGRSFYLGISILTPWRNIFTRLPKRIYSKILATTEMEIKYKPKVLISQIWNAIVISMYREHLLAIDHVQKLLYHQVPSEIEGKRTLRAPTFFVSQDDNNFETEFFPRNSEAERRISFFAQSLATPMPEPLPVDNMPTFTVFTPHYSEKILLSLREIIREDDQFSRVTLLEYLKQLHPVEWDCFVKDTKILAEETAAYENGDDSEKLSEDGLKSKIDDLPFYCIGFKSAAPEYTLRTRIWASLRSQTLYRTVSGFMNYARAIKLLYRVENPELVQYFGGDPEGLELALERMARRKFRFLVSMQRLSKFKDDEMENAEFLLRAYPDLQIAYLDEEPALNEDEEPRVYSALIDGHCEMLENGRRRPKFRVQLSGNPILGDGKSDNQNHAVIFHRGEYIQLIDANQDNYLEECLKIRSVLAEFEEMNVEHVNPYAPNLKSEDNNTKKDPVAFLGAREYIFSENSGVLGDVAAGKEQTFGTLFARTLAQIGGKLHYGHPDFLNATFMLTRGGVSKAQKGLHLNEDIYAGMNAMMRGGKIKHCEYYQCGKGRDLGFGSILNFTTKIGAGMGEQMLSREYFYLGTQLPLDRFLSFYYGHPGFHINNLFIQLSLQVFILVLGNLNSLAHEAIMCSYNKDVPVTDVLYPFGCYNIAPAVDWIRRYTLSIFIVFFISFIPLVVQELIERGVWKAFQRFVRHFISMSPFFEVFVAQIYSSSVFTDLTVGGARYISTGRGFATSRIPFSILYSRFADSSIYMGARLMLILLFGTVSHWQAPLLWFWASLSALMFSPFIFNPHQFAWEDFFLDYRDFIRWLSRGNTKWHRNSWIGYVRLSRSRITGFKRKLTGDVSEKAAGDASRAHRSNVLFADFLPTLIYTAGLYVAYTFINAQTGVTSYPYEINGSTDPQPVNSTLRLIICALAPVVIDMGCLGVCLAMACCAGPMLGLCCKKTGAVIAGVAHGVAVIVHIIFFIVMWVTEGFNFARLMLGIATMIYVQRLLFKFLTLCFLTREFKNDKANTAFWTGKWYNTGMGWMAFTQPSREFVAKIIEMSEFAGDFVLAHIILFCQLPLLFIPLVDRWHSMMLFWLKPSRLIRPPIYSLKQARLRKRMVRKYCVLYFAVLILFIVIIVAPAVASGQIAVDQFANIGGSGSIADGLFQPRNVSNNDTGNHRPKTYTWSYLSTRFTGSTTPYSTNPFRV
Experimental: The assay was conducted in a final volume of 100 μL of 2.0 mM UDP-[^14 C]-Glc (0.625 mCi/mmol), 1 mM EDTA, 8% (v/v) glycerol, 20 μM GTPgS, 0.5% Brij-35(v/v) or 0.8% BSA, 80 mM Tris/HCl, pH 7.75, and microsomal enzyme preparation C. albicans CCH 442 (100 μg of protein). A detailed description of this assay is described by Frost, D., Brandt, K. Capobioanco, and Goldman, R., Microbiology 140: 2239-2246 (1994) which is incorporated herein by reference.

[18] = Table 6c, II Candida albicans 579a, agar dilution, read-out: MIC II
[19] = CCH442, Table 6c, 3rd value column (head printed II), III Candida albicans CCH 442, agar dilution, read-out: MIC II

SMILES	MIC (Candida albicans 579a; [18])	MIC [11]	MIC [13]	MIC [15]	MIC (Candida albicans CCH 442; [19])	further results
C[C@@H]1C[C@@H]([C@H](O)CC2CC(=O)NC(=O)C2)C(=O)[C@@H](C)C1 [Cycloheximide, cycloheximide, reference compound]						MIC ([1]; Aspergillus niger, ATCC164, 20 h): 1.6 µg/mL (≈ 5.69 µM); MIC ([2]; Candida albicans, ATCC623, 20 h): > 100 µg/mL; MIC [3]: > 100 µg/mL; MIC (Candida albicans CCH 442; Candida albicans, CCH442, 20 h): > 100 µg/mL; MIC ([4]; Candida tropicalis, NRRLY1, 20 h): 0.4 µg/mL (≈ 1.42 µM); MIC ([5]; Saccharomyces, GS136, 20 h): < 0.05 µg/mL; MIC ([6]; ATCC155, 20 h): 0.4 µg/mL (≈ 1.42 µM); MIC [7]: 1.6 µg/mL (≈ 5.69 µM); MIC [8]: 50 µg/mL (≈ 178 µM); MIC [9]: 25 µg/mL (≈ 88.9 µM); MIC [10]: 0.8 µg/mL (≈ 2.84 µM)
CCCCC/C=C/C=C/C(O)C/C=C/C=C/C(=O)O[C@@H]1[C@@H](O)[C@H](c2c(O)cc(O)cc2CO)O[C@H](CO)[C@H]1O[C@@H]1O[C@H](CO)[C@H](O)[C@H](O)[C@H]1O[C@@H]1O[C@H](CO)[C@H](O)[C@H](O)[C@H]1O (some centres unmarked) [Example 7, fusacandin B]	25 µg/mL (≈ 28.6 µM)	50 µg/mL (≈ 57.3 µM)	> 100 µg/mL	50 µg/mL (≈ 57.3 µM)	25 µg/mL (≈ 28.6 µM)	MIC ([1]; ATCC164, Table 6b, Aspergillus niger ATCC 164, agar dilution, 32° C., 20 hours, read-out: MIC): > 100 µg/mL; MIC (Candida albicans 579a; Candida albicans, 579A, 20 h): 50 µg/mL (≈ 57.3 µM); MIC [12]: 50 µg/mL (≈ 57.3 µM); MIC [14]: > 100 µg/mL; MIC ([2]; ATCC623, Table 6b, Candida albicans ATCC 623, agar dilution, 32° C., 20 hours, read-out: MIC): 100 µg/mL (≈ 115 µM); MIC (Candida albicans CCH 442; CCH442, Table 6b, Candida albicans CCH 442, agar dilution, 32° C., 20 hours, read-out: MIC): 50 µg/mL (≈ 57.3 µM); MIC (Candida kefyr ATTC 288): 100 µg/mL (≈ 115 µM); MIC ([4]; NRRLY1, Table 6b, Candida tropicalis NRRL Y-1, agar dilution, 32° C., 20 hours, read-out: MIC): 50 µg/mL (≈ 57.3 µM); MIC [16]: > 100 µg/mL; MIC ([5]; GS136, Table 6b, Saccharomyces cereviseae GS1-36, agar dilution, 32° C., 20 hours, read-out: MIC): 50 µg/mL (≈ 57.3 µM); MIC ([6]; ATCC155, Table 6b, Torulopsis glabrata ATCC 155, agar dilution, 32° C., 20 hours, read-out: MIC): 100 µg/mL (≈ 115 µM)
CC/C=C/C/C=C\C=C\C(=O)OC[C@H]1O[C@@H](O[C@H]2[C@H](OC(=O)/C=C/C=C/CC(O)/C=C/C=C/CCCCC)[C@@H](O)[C@H](c3c(O)cc(O)cc3CO)O[C@@H]2CO)[C@H](O[C@@H]2O[C@H](CO)[C@H](O)[C@H](O)[C@H]2O)[C@@H](O)[C@H]1O (some centres unmarked) [Example 9, fusacandin C]						MIC [17]: 1.95 µg/mL (≈ 1.91 µM); IC50 ((1,3)-β-Glucan Synthase; 0.5% Brij-35, read-out: IC50 With Brij-35 (converted)): 35 µM; IC50 ((1,3)-β-Glucan Synthase; 0.8% BSA, read-out: IC50 With BSA (converted)): 194 µM
CCCCC/C=C/C=C/[C@@H](O)C/C=C/C=C/C(=O)O[C@@H]1[C@@H](O)[C@H](c2c(O)cc(O)cc2CO)O[C@H](CO)[C@H]1O[C@@H]1O[C@H](COC(=O)c2ccc(-c3ccc(OCc4ccccc4)cc3)cc2)[C@H](O)[C@H](O)[C@H]1O[C@@H]1O[C@H](CO)[C@H](O)[C@H](O)[C@H]1O [Example 37]	1.56 µg/mL (≈ 1.35 µM)	1.56 µg/mL (≈ 1.35 µM)	3.12 µg/mL (≈ 2.69 µM)	1.56 µg/mL (≈ 1.35 µM)	3.12 µg/mL (≈ 2.69 µM)	
CCCCC/C=C/C=C/[C@@H](O)C/C=C/C=C/C(=O)O[C@@H]1[C@@H](O)[C@H](c2c(O)cc(O)cc2CO)O[C@H](CO)[C@H]1O[C@@H]1O[C@H](COC(=O)c2ccc(-c3ccc(OCCCCCCCC)cc3)cc2)[C@H](O)[C@H](O)[C@H]1O[C@@H]1O[C@H](CO)[C@H](O)[C@H](O)[C@H]1O [Example 38]	25 µg/mL (≈ 21.2 µM)	25 µg/mL (≈ 21.2 µM)	50 µg/mL (≈ 42.3 µM)	12.5 µg/mL (≈ 10.6 µM)	25 µg/mL (≈ 21.2 µM)	
CCCCC/C=C/C=C/[C@@H](O)C/C=C/C=C/C(=O)O[C@@H]1[C@@H](O)[C@H](c2c(O)cc(O)cc2CO)O[C@H](CO)[C@H]1O[C@@H]1O[C@H](COC(=O)c2cccc(-c3ccc(OC)cc3)c2)[C@H](O)[C@H](O)[C@H]1O[C@@H]1O[C@H](CO)[C@H](O)[C@H](O)[C@H]1O [Example 39]	0.78 µg/mL (≈ 0.72 µM)	1.56 µg/mL (≈ 1.44 µM)	1.56 µg/mL (≈ 1.44 µM)	3.12 µg/mL (≈ 2.88 µM)	1.56 µg/mL (≈ 1.44 µM)	
CCCCC/C=C/C=C/[C@@H](O)C/C=C/C=C/C(=O)O[C@@H]1[C@@H](O)[C@H](c2c(O)cc(O)cc2CO)O[C@H](CO)[C@H]1O[C@@H]1O[C@H](COC(=O)c2ccc(-c3ccccc3OC)cc2)[C@H](O)[C@H](O)[C@H]1O[C@@H]1O[C@H](CO)[C@H](O)[C@H](O)[C@H]1O [Example 40]	1.56 µg/mL (≈ 1.44 µM)	6.25 µg/mL (≈ 5.77 µM)	6.25 µg/mL (≈ 5.77 µM)	1.56 µg/mL (≈ 1.44 µM)	6.25 µg/mL (≈ 5.77 µM)	
CCCCC/C=C/C=C/[C@@H](O)C/C=C/C=C/C(=O)O[C@@H]1[C@@H](O)[C@H](c2c(O)cc(O)cc2CO)O[C@H](CO)[C@H]1O[C@@H]1O[C@H](COC(=O)c2ccc(-c3ccc(O)cc3)cc2)[C@H](O)[C@H](O)[C@H]1O[C@@H]1O[C@H](CO)[C@H](O)[C@H](O)[C@H]1O [Example 41]	6.25 µg/mL (≈ 5.85 µM)	12.5 µg/mL (≈ 11.7 µM)	6.25 µg/mL (≈ 5.85 µM)	12.5 µg/mL (≈ 11.7 µM)	6.25 µg/mL (≈ 5.85 µM)	
CCCCC/C=C/C=C/[C@@H](O)C/C=C/C=C/C(=O)O[C@@H]1[C@@H](O)[C@H](c2c(O)cc(O)cc2CO)O[C@H](CO)[C@H]1O[C@@H]1O[C@H](COC(=O)c2ccc(-c3ccc(OCCC)cc3)cc2)[C@H](O)[C@H](O)[C@H]1O[C@@H]1O[C@H](CO)[C@H](O)[C@H](O)[C@H]1O [Example 42]	0.78 µg/mL (≈ 0.702 µM)	0.78 µg/mL (≈ 0.702 µM)	0.78 µg/mL (≈ 0.702 µM)	0.78 µg/mL (≈ 0.702 µM)	0.78 µg/mL (≈ 0.702 µM)	
CCCCC/C=C/C=C/[C@@H](O)C/C=C/C=C/C(=O)O[C@@H]1[C@@H](O)[C@H](c2c(O)cc(O)cc2CO)O[C@H](CO)[C@H]1O[C@@H]1O[C@H](COC(=O)c2ccc(-c3ccc(OC(C)C)cc3)cc2)[C@H](O)[C@H](O)[C@H]1O[C@@H]1O[C@H](CO)[C@H](O)[C@H](O)[C@H]1O [Example 43]	0.78 µg/mL (≈ 0.702 µM)	1.56 µg/mL (≈ 1.4 µM)	0.78 µg/mL (≈ 0.702 µM)	0.78 µg/mL (≈ 0.702 µM)	0.78 µg/mL (≈ 0.702 µM)	
